Source: patent publication US20150259344A1, “IMIDAZOLE DERIVATIVE” (DAINIPPON SUMITOMO PHARMA CO., LTD., priority 2012, published 2015)
Read-outs that look alike come from different tables or passages of the source.

Biological target: T1, human α7 nAChR (Homo sapiens, UniProt P36544)
T1 construct: expressed in transfected cells
Experiment: Evaluation of PAM activity with human α7 nACh receptor stably expressing cells (aequorin luminescence, FDSS7000)
Type: cell-based
Conditions: for activity at 10 µM: read-out: α7PAM (%) @10 μM; for activity at 1 µM: 1 μM test compound (values marked *, footnote of Table 25), read-out: α7PAM (%) @1 μM
Outline: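 Human α7 nAChR stable cells loaded with 4 μM Viviren (final) for 4 h at room temperature in the dark. Compounds in Hanks/20 mM HEPES/0.2% BSA were added and luminescence recorded on FDSS7000. PAM activity = RLU (Max-Min) ratio of test wells to control wells.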

[1] = 10 μM test compound, ACh at EC20, ratio of RLU (Max-Min) to control wells
[2] = GH4-C1, 10 μM test compound, ratio of RLU (Max-Min) of test wells to control wells after ACh at EC20, GH4C1 cells expressing human α7 nAChR and aequorin
[3] = ACh at EC20, ratio of RLU (Max-Min) to control wells

T1 sequence (P36544 23-502): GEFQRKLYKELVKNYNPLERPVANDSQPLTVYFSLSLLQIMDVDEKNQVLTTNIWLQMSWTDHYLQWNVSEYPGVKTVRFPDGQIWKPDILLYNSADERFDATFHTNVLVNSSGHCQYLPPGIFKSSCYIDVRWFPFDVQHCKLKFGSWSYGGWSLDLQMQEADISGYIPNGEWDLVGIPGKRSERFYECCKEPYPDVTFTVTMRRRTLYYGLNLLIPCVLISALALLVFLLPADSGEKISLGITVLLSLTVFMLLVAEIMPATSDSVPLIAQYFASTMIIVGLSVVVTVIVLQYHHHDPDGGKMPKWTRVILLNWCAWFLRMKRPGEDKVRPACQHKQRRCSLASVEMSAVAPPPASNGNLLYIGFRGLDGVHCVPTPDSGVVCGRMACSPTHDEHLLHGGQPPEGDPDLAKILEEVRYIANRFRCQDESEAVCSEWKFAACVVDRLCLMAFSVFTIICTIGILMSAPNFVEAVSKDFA

Compound | activity at 10 µM [1] [%] | also measured
CC(C)(F)C(=O)N[C@H]1CC[C@@H](n2cnc(-c3ccc(C(F)(F)F)cc3)c2C#N)CC1 [Example 201, N-(cis-4-{5-cyano-4-[4-(trifluoromethyl)phenyl]-1H-imidazol-1-yl}cyclohexyl)-2-fluoro-2-methylpropanamide] | 224 | –
CC(C)(F)C(=O)N[C@H]1CC[C@@H](n2cnc(-c3cccc(C(F)(F)F)c3)c2C#N)CC1 [Example 202] | 263 | –
N#Cc1c(-c2ccccc2)ncn1[C@H]1CC[C@@H](NC(=O)C2CC(F)(F)C2)CC1 [Example 203] | 641 | –
O=C(N[C@H]1CC[C@H](n2cnc(-c3ccccc3)c2)CC1)C1CCCCC1 [Example 204] | 172 | –
O=C(N[C@H]1CC[C@H](n2cnc(-c3ccccc3)c2)CC1)C1CCC(F)(F)CC1 [Example 205] | 110 | –
O=C(N[C@H]1CC[C@H](n2cnc(-c3ccccc3)c2Cl)CC1)C1CCCCC1 [Example 206] | 102 | –
O=C(N[C@H]1CC[C@H](n2cnc(-c3ccccc3)c2Cl)CC1)C1CCC(F)(F)CC1 [Example 207] | 115 | –
O=C(NC1CCCCC1)[C@H]1CC[C@H](n2cnc(-c3ccccc3)c2)CC1 [Example 231] | – | activity at 10 µM [2]: 149%
CC(C)(C)NC(=O)[C@H]1CC[C@H](n2cnc(-c3ccccc3)c2)CC1 [Example 232] | – | activity at 10 µM [2]: 113%
O=C(NC1CCCCC1)[C@H]1CC[C@H](n2cnc(-c3ccccc3)c2Cl)CC1 [Example 233] | – | activity at 10 µM [2]: 102%
CC(C)(C)NC(=O)[C@H]1CC[C@H](n2cnc(-c3ccccc3)c2Cl)CC1 [Example 234] | – | activity at 10 µM [2]: 130%
FC(F)(F)c1cc(N[C@H]2CC[C@@H](n3cnc(-c4ccccc4)c3)CC2)ncn1 [Example 235, N-[cis-4-(4-Phenyl-1H-imidazol-1-yl)cyclohexyl]-6-(trifluoromethyl)pyrimidin-4-amine] | – | activity at 10 µM [2]: 631%
Fc1ccc(-c2ncn([C@H]3CC[C@@H](Nc4cc(C(F)(F)F)ncn4)CC3)c2Cl)cc1 [Example 237] | 405 | –
Cc1c(-c2ccc(F)cc2)ncn1[C@H]1CC[C@@H](Nc2cc(C(F)(F)F)ncn2)CC1 [Example 239] | 207 | –
O=C(NC1CCCCC1)N1CCCC(n2cnc(-c3ccc(F)cc3)c2)CC1 (stereo not drawn) [Example 240] | 280 | –
O=C(NC1CCCCC1)N1CCCC(n2cnc(-c3ccc(F)cc3)c2Cl)CC1 (stereo not drawn) [Example 241] | 314 | –
O=C(C1CCC(F)(F)CC1)N1CCCC(n2cnc(-c3ccc(F)cc3)c2)CC1 (stereo not drawn) [Example 242] | 297 | –
O=C(C1CCC(F)(F)CC1)N1CCCC(n2cnc(-c3ccc(F)cc3)c2Cl)CC1 (stereo not drawn) [Example 243] | 290 | –
O=C(NC1CCOCC1)N1CCC(n2cnc(-c3cccc(F)c3)c2)CC1 [Example 244] | 175 | –
O=C(NC1CCOCC1)N1CCC(n2cnc(-c3ccc(F)cc3)c2)CC1 [Example 245] | 197 | –
O=C(NC1CCOCC1)N1CCC(n2cnc(-c3ccc(Cl)cc3F)c2)CC1 [Example 248] | 901 | –
O=C(NC1CCOCC1)N1CCC(n2cnc(-c3ccc(C(F)(F)F)c(F)c3)c2)CC1 [Example 251] | 369 | –

Compound | activity at 10 µM [1] [%] | also measured
O=C(NC1CCOCC1)N1CCC(n2cnc(-c3ccccc3F)c2Cl)CC1 [Example 252] | 648 | –
O=C(NC1CCOCC1)N1CCC(n2cnc(-c3cccc(F)c3)c2Cl)CC1 [Example 253] | 899 | –
N#Cc1c(-c2ccc(F)cc2)ncn1C1CCN(C(=O)NC2CCCCC2)CC1 [Example 255] | 759 | –
Cc1c(-c2ccc(F)cc2)ncn1C1CCN(C(=O)NC(C)(C)C)CC1 [Example 257] | 439 | –
Cc1c(-c2ccc(F)cc2)ncn1C1CCN(C(=O)NC2CCOCC2)CC1 [Example 259] | 420 | –
CC(C)(F)C(=O)N1CCC(n2cnc(-c3ccc(F)cc3)c2)CC1 [Example 260] | 146 | –
O=C(C1CCC(F)(F)CC1)N1CCC(n2cnc(-c3ccc(F)cc3)c2)CC1 [Example 261] | 399 | –
O=C(C1CCOCC1)N1CCC(n2cnc(-c3ccc(C(F)(F)F)cc3)c2Cl)CC1 [Example 262] | 603 | –
CC(C)(F)C(=O)N1CCC(n2cnc(-c3ccc(F)cc3)c2Cl)CC1 [Example 263] | 193 | –
O=C(C1CCOCC1)N1CCC(n2cnc(-c3ccc(Cl)cc3)c2Cl)CC1 [Example 264] | 781 | –
COc1ccc(-c2ncn(C3CCN(C(=O)C4CCC(F)(F)CC4)CC3)c2C#N)cc1 [Example 265] | 990 | –
CC(C)(F)C(=O)N1CCC(n2cnc(-c3ccc(F)cc3)c2C#N)CC1 [Example 266] | 149 | –
N#Cc1c(-c2ccc(F)cc2)ncn1C1CCN(C(=O)C2CC(F)(F)C2)CC1 [Example 267] | 594 | –
N#Cc1c(-c2ccccc2)ncn1C1CCN(C(=O)C2CC(F)(F)C2)CC1 [Example 268] | 725 | –
N#Cc1c(-c2cccc(F)c2)ncn1C1CCN(C(=O)C2CC(F)(F)C2)CC1 [Example 269] | 452 | –
N#Cc1c(-c2ccccc2F)ncn1C1CCN(C(=O)C2CC(F)(F)C2)CC1 [Example 270] | 569 | –
N#Cc1c(-c2ccc(F)cc2F)ncn1C1CCN(C(=O)C2CCC(F)(F)CC2)CC1 [Example 271] | 275 | –
CC(C)(F)C(=O)N[C@H]1CC[C@@H](n2cnc(-c3ccc(F)cc3)c2)CC1 [Example 277] | – | α7PAM (%) @10 μM [1]: 424%
CC(C)(F)C(=O)N[C@H]1CC[C@@H](n2cnc(-c3ccc(F)c(OC(F)(F)F)c3)c2)CC1 [Example 295] | – | activity at 1 µM [3]: 444%
CC(C)(F)C(=O)N[C@H]1CC[C@@H](n2cnc(-c3ccc(OC(F)(F)F)c(F)c3)c2)CC1 [Example 296] | – | activity at 1 µM [3]: 589%
CC(C)(F)C(=O)N[C@H]1CC[C@@H](n2cnc(-c3cc(OC(F)(F)F)ccc3F)c2)CC1 [Example 304] | – | activity at 1 µM [3]: 600%

More lines, main results first:

activity at 10 µM [1] [%] | Compound | also measured
138 | N#Cc1c(-c2cccc(F)c2F)ncn1C1CCN(C(=O)C2CCC(F)(F)CC2)CC1 [Example 272] | –
139 | N#Cc1c(-c2ccc(F)c(F)c2)ncn1C1CCN(C(=O)C2CCC(F)(F)CC2)CC1 [Example 273] | –
351 | N#Cc1c(-c2cc(F)ccc2F)ncn1C1CCN(C(=O)C2CCC(F)(F)CC2)CC1 [Example 274] | –
912 | Cc1c(-c2ccc(F)cc2)ncn1C1CCN(C(=O)C2CCC(F)(F)CC2)CC1 [Example 275] | –
244 | Cc1c(-c2ccc(F)cc2)ncn1C1CCN(C(=O)C2CCOCC2)CC1 [Example 276] | –
834 | CC(C)(F)C(=O)N[C@H]1CC[C@@H](n2cnc(-c3ccc(OC(F)(F)F)cc3)c2)CC1 [Example 278] | –
236 | CC(C)(C)C(=O)N[C@H]1CC[C@@H](n2cnc(-c3ccc(OC(F)(F)F)cc3)c2)CC1 [Example 279] | –
411 | CC(C)(C)C(=O)N[C@H]1CC[C@@H](n2cnc(-c3ccc(Cl)cc3)c2)CC1 [Example 281] | –
229 | O=C(N[C@H]1CC[C@@H](n2cnc(-c3ccc(F)cc3)c2)CC1)C1CCOCC1 [Example 282] | –
390 | CC(C)(F)C(=O)N[C@H]1CC[C@@H](n2cnc(-c3ccc(Cl)cc3F)c2)CC1 [Example 283, N-{cis-4-[4-(4-chloro-2-fluorophenyl)-1H-imidazol-1-yl]cyclohexyl}-2-fluoro-2-methylpropanamide] | –
398 | CC(C)(F)C(=O)N[C@H]1CC[C@@H](n2cnc(-c3cc(Cl)ccc3F)c2)CC1 [Example 284] | –
869 | COc1ccc(-c2cn([C@H]3CC[C@@H](NC(=O)C(C)(C)F)CC3)cn2)cc1 [Example 285] | –
469 | CC(C)(F)C(=O)N[C@H]1CC[C@@H](n2cnc(-c3cccc(Cl)c3)c2)CC1 [Example 286] | –
327 | CC(F)(F)C(=O)N[C@H]1CC[C@@H](n2cnc(-c3ccc(F)cc3)c2)CC1 [Example 288] | –
125 | O=C(N[C@H]1CC[C@@H](n2cnc(-c3ccc(F)cc3)c2)CC1)C(F)F [Example 289] | –
194 | CC(C)(C(=O)N[C@H]1CC[C@@H](n2cnc(-c3ccc(F)cc3)c2)CC1)C(F)(F)F [Example 290] | –
420 | CC(F)(F)C(=O)N[C@H]1CC[C@@H](n2cnc(-c3ccc(Cl)cc3)c2)CC1 [Example 291] | –
101 | O=C(N[C@H]1CC[C@@H](n2cnc(-c3ccc(Cl)cc3)c2)CC1)C(F)F [Example 292] | –
211 | CC(C)(C(=O)N[C@H]1CC[C@@H](n2cnc(-c3ccc(Cl)cc3)c2)CC1)C(F)(F)F [Example 293] | –
326 | CC(C)(F)C(=O)N[C@H]1CC[C@@H](n2cnc(-c3cccc(F)c3)c2)CC1 [Example 294] | –
866 | CC(C)(F)C(=O)N[C@H]1CC[C@@H](n2cnc(-c3ccccc3F)c2)CC1 [Example 297] | –
166 | CC(C)(F)C(=O)N[C@H]1CC[C@@H](n2cnc(-c3cccc(OC(F)(F)F)c3)c2)CC1 [Example 298] | –
893 | CC(C)(F)C(=O)N[C@H]1CC[C@@H](n2cnc(-c3cccc(F)c3F)c2)CC1 [Example 299] | –
828 | CC(C)(F)C(=O)N[C@H]1CC[C@@H](n2cnc(-c3cc(F)ccc3F)c2)CC1 [Example 301] | –
325 | CC(C)(F)C(=O)N[C@H]1CC[C@@H](n2cnc(-c3cc(F)cc(F)c3)c2)CC1 [Example 302] | –
208 | CC(C)(F)C(=O)N[C@H]1CC[C@@H](n2cnc(-c3ccc(OC(F)(F)F)cc3F)c2)CC1 [Example 303] | –
